Results taken from patent publication US8680159B2, “Bradykinin 1 receptor modulating compounds” (Gruenenthal GmbH, priority 2010, dated 2014).

Experiments:
[1] = biological target: T1, human B1R receptor (CHO K1 cells stably transfected with the human B1R gene) (Homo sapiens, UniProt P46663); assay: Functional study on the bradykinin receptor 1 (B1R), Ca2+ fluorescence (Fluo-4) FLIPR/Novostar assay, hB1R cells; type: cell-based; details: CHO-K1, read-out: % inhibition (human B1R) at 10 μM
T1 construct: expressed in transfected cells; host or cells: CHO K1 cells (Chinese hamster ovary), stably transfected
T1 sequence (P46663 1-353): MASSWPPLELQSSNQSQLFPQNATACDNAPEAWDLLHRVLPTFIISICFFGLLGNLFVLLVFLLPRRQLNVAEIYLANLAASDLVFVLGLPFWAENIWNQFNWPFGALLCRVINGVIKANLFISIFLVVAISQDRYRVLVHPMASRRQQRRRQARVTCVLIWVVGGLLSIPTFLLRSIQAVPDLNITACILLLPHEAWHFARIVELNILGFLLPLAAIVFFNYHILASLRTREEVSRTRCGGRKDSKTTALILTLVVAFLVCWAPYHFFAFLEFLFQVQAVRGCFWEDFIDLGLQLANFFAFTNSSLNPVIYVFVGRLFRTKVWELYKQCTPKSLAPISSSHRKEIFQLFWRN
In short: (§1)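 Stably transfected CHO K1 cells carrying human or rat B1R were Fluo-4 loaded and Ca2+ fluorescence read by FLIPR or Novostar. Compounds were added first at 10 μM for % activation, then the EC80 agonist was applied after 6-20 min (human: Lys-Des-Arg9-bradykinin; rat: Des-Arg9-bradykinin). % inhibition is relative to maximum achievable inhibition, and IC50 comes from concentration series.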

[2] = biological target: T2, B1R receptor of the rat (CHO K1 cells stably transfected with the B1R gene of the rat) (Rattus norvegicus, UniProt P97583); assay: Functional study on the bradykinin receptor 1 (B1R), Ca2+ fluorescence (Fluo-4) FLIPR/Novostar assay, rB1R cells; type: cell-based; details: CHO-K1, 10 μM, read-out: % inhibition (rat B1R) at 10 μM
T2 construct: expressed in transfected cells; host or cells: CHO K1 cells (Chinese hamster ovary), stably transfected
T2 sequence (P97583 1-337): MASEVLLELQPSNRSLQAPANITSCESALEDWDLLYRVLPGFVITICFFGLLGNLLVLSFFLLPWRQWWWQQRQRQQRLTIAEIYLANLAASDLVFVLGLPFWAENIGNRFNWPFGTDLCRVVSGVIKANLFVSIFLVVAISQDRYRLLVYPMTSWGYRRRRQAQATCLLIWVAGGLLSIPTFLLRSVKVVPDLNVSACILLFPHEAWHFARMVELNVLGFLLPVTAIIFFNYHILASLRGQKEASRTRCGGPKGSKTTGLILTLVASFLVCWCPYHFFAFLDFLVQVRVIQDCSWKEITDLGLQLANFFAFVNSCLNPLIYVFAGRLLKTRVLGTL
In short: as §1

inhibition at 10 µM [1]	inhibition at 10 µM [2]	SMILES
97%	107%	CN(C(=O)c1ccc2c(c1)[C@H](NC(=O)c1ccccc1Cl)CC2)C1CCN(c2ccnc(C#N)c2)CC1 [Example H-123, (3R)-3-[(2-Chloro-benzoyl)amino]-N-[1-(2-cyano-pyridin-4-yl)-piperidin-4-yl]-N-methyl-2,3-dihydro-1H-indene-5-carboxylic acid amide]
100%	108%	CN(C(=O)c1ccc2c(c1)[C@H](NC(=O)c1ccccc1Cl)CC2)C1CCN(c2ccnc(N3CCCC3)c2)CC1 [Example H-124, (3R)-3-[(2-Chloro-benzoyl)amino]-N-methyl-N-[1-(2-pyrrolidin-1-yl-pyridin-4-yl)-piperidin-4-yl]-2,3-dihydro-1H-indene-5-carboxylic acid amide]
70%	104%	Cc1nsc(N2CCC(N(C)C(=O)c3ccc4c(c3)[C@H](NC(=O)c3ccccc3Cl)CC4)CC2)n1 [Example H-125, (3R)-3-[(2-Chloro-benzoyl)amino]-N-methyl-N-[1-(3-methyl-[1,2,4]thiadiazol-5-yl)-piperidin-4-yl]-2,3-dihydro-1H-indene-5-carboxylic acid amide]
99%	100%	Cc1cc(N2CCC(N(C)C(=O)c3ccc4c(c3)[C@H](NC(=O)c3ccccc3F)CC4)CC2)nc(C)n1 [Example H-128, (3R)-N-[1-(2,6-Dimethyl-pyrimidin-4-yl)-piperidin-4-yl]-3-[(2-fluoro-benzoyl)amino]-N-methyl-2,3-dihydro-1H-indene-5-carboxylic acid amide]
100%	98%	Cc1cc(N2CCC(N(C)C(=O)c3ccc4c(c3)[C@H](NC(=O)c3cccc(F)c3Cl)CC4)CC2)nc(C)n1 [Example H-129, (3R)-3-[(2-Chloro-3-fluoro-benzoyl)amino]-N-[1-(2,6-dimethyl-pyrimidin-4-yl)-piperidin-4-yl]-N-methyl-2,3-dihydro-1H-indene-5-carboxylic acid amide]
55%	77%	COc1c(C)cnc(CN2CCC(N(C)C(=O)c3ccc4c(c3)[C@H](NC(=O)c3ccccc3Cl)CC4)CC2)c1C [Example H-131, (3R)-3-[(2-Chloro-benzoyl)amino]-N-[1-[(4-methoxy-3,5-dimethyl-pyridin-2-yl)-methyl]-piperidin-4-yl]-N-methyl-2,3-dihydro-1H-indene-5-carboxylic acid amide]
99%	109%	Cc1cc(N2CCC(N(C)C(=O)c3ccc4c(c3)[C@H](NC(=O)c3cc(C(F)(F)F)ccc3Cl)CC4)CC2)nc(C)n1 [Example H-137, (3R)-3-[[2-Chloro-5-(trifluoromethyl)-benzoyl]amino]-N-[1-(2,6-dimethyl-pyrimidin-4-yl)-piperidin-4-yl]-N-methyl-2,3-dihydro-1H-indene-5-carboxylic acid amide]
91%	41%	CN1CCN(C(=O)CN2CCC(N(C)C(=O)c3ccc4c(c3)[C@H](NC(=O)c3ccccc3Cl)CC4)CC2)CC1 [Example H-138, (3R)-3-[(2-Chloro-benzoyl)amino]-N-methyl-N-[1-[2-(4-methyl-piperazin-l-yl)-2-oxo-ethyl]-piperidin-4-yl]-2,3-dihydro-1H-indene-5-carboxylic acid amide]
99%	105%	Cc1cc(N2CCC(N(C)C(=O)c3ccc4c(c3)[C@H](NC(=O)c3ccccc3Cl)CC4)CC2)ncn1 [Example H-141, (3R)-3-[(2-Chloro-benzoyl)amino]-N-methyl-N-[1-(6-methyl-pyrimidin-4-yl)-piperidin-4-yl]-2,3-dihydro-1H-indene-5-carboxylic acid amide]
99%	98%	Cc1cc(N2CCC(N(C)C(=O)c3cc4c(cc3F)[C@H](N3Cc5cccc(Cl)c5C3=O)CC4)CC2)nc(C)n1 [Example H-142, (1R)-1-(4-Chloro-3-oxo-1,2-dihydro-isoindol-2-yl)-N-[1-(2,6-dimethyl-pyrimidin-4-yl)-piperidin-4-yl]-6-fluoro-N-methyl-2,3-dihydro-1H-indene-5-carboxylic acid amide]

Second part, the molecule before the results:

SMILES	inhibition at 10 µM [1]	inhibition at 10 µM [2]
COc1nc(C)cc(N2CCC(N(C)C(=O)c3ccc4c(c3)[C@H](NC(=O)c3ccccc3Cl)CC4)CC2)n1 [Example H-126, (3R)-3-[(2-Chloro-benzoyl)amino]-N-[1-(2-methoxy-6-methyl-pyrimidin-4-yl)-piperidin-4-yl]-N-methyl-2,3-dihydro-1H-indene-5-carboxylic acid amide]	100%	104%
CN(C(=O)c1ccc2c(c1)[C@H](NC(=O)c1ccccc1Cl)CC2)C1CCN(c2ncnc3ccccc23)CC1 [Example H-127, (3R)-3-[(2-Chloro-benzoyl)amino]-N-methyl-N-(1-quinazolin-4-yl-piperidin-4-yl)-2,3-dihydro-1H-indene-5-carboxylic acid amide]	96%	91%
Cc1cc(N2CCC(N(C)C(=O)c3ccc4c(c3)[C@H](N3Cc5cccc(Cl)c5C3=O)CC4)CC2)nc(C)n1 [Example H-130, (3R)-3-(4-Chloro-3-oxo-1,2-dihydro-isoindol-2-yl)-N-[1-(2,6-dimethyl-pyrimidin-4-yl)-piperidin-4-yl]-N-methyl-2,3-dihydro-1H-indene-5-carboxylic acid amide]	99%	101%
Cc1cc(N2CCC(N(C)C(=O)c3ccc4c(c3)[C@H](NC(=O)c3ccccc3C(F)(F)F)CC4)CC2)nc(C)n1 [Example H-132, (3R)-N-[1-(2,6-Dimethyl-pyrimidin-4-yl)-piperidin-4-yl]-N-methyl-3-[[2-(trifluoromethyl)-benzoyl]amino]-2,3-dihydro-1H-indene-5-carboxylic acid amide]	99%	99%
Cc1cc(N2CCC(N(C)C(=O)c3ccc4c(c3)[C@H](NC(=O)c3cc(F)ccc3Cl)CC4)CC2)nc(C)n1 [Example H-133, (3R)-3-[(2-Chloro-5-fluoro-benzoyl)amino]-N-[1-(2,6-dimethyl-pyrimidin-4-yl)-piperidin-4-yl]-N-methyl-2,3-dihydro-1H-indene-5-carboxylic acid amide]	99%	100%
Cc1cc(CN2CCC(N(C)C(=O)c3ccc4c(c3)[C@H](NC(=O)c3ccccc3Cl)CC4)CC2)on1 [Example H-134, (3R)-3-[(2-Chloro-benzoyl)amino] N-methyl-N-[1-[(3-methyl-isoxazol-5-yl)-methyl]-piperidin-4-yl]-2,3-dihydro-1H-indene-5-carboxylic acid amide]	8%	55%
Cc1cc(N2CCC(N(C)C(=O)c3ccc4c(c3)[C@H](NC(=O)c3cccc(C(F)(F)F)c3Cl)CC4)CC2)nc(C)n1 [Example H-135, (3R)-3-[[2-Chloro-3-(trifluoromethyl)-benzoyl]amino]-N-[1-(2,6-dimethyl-pyrimidin-4-yl)-piperidin-4-yl]-N-methyl-2,3-dihydro-1H-indene-5-carboxylic acid amide]	99%	106%
CN(CC1CCN(c2ccncn2)CC1)C(=O)c1ccc2c(c1)[C@H](NC(=O)c1ccccc1Cl)CC2 [Example H-136, (3R)-3-[(2-Chloro-benzoyl)amino]-N-methy-N-[(1-pyrimidin-4-yl-piperidin-4-yl)-methyl]-2,3-dihydro-1H-indene-5-carboxylic acid amide]	41%	107%
Cc1cc(N2CCC(N(C)C(=O)c3ccc4c(c3)[C@H](NC(=O)c3ccccc3Cl)CC4)CC2)nc(C(C)C)n1 [Example H-139, (3R)-3-[(2-Chloro-benzoyl)amino]-N-[1-(2-isopropyl-6-methyl-pyrimidin-4-yl)-piperidin-4-yl]-N-methyl-2,3-dihydro-1H-indene-5-carboxylic acid amide]	100%	97%
CN(C(=O)c1ccc2c(c1)[C@H](NC(=O)c1ccccc1Cl)CC2)C1CCN(CC(=O)N2CCCC2)CC1 [Example H-140, (3R)-3-[(2-Chloro-benzoyl)amino]-N-methyl-N-[1-(2-oxo-2-pyrrolidin-1-yl-ethyl)-piperidin-4-yl]-2,3-dihydro-1H-indene-5-carboxylic acid amide]	47%	49%
